Measured values: patent publication US10098878B2, “HIF-2α inhibitors for treating iron overload disorders” (The Board of Regents of the University of Texas System, priority 2014, dated 2018)
Like-named read-outs stand apart in the source and are kept apart here.

Key:
786-O-Hif-Luc cells = test: Luciferase Assay; format: cell-based; details: read-out: Luciferase EC50
Experimental: A pool of infected cells were then selected against 2 μg/mL of puromycin (P8833, Sigma) for 10 days followed by limited dilution to select single clones.
Each concentration was tested in triplicate. After about 24 hours, luciferase activity was determined using ONE-Glo Luciferase Assay Reagent (E6110, Promega) following the manufacturer's recommended procedure. EC50 were calculated by using Dotmatics software.

[1] = target: T1, HIF-2α HIS TAG-PASB Domain (Homo sapiens, UniProt Q99814); test: HIF-2α Scintillation Proximity Assay (SPA); format: binding; details: 100 nM HIF-2α HIS TAG-PASB Domain
T1 construct: 100 nM HIF-2α HIS TAG-PASB Domain
Experimental: The total assay volume was about 100 μL in the following configuration: 2 μL compound in 100% DMSO, 88 μL buffer with protein and probe and 10 μL of SPA beads. […] The percent inhibition was determined and IC50 values were calculated using the Dotmatics system based on the following equation: % inhibition=[(high control−sample)/(high control−low control)]×100.

[2] = 24 h, 786-O-Hif-Luc cells, about 24 hours
[3] = 786-O-Hif-Luc cells, about 24 hours
[4] = 150 nM Compound 211 probe, read-out: SPA IC50
[5] = SPA IC50, 150 nM Compound 211 probe

T1 sequence (Q99814 240-350 limits assumed): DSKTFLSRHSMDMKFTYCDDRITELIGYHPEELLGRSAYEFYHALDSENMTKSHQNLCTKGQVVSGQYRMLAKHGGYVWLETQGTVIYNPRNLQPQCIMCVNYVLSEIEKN

Compound	IC50 [1, 4]	also measured
O=S1(=O)c2ccc(Oc3cc(F)cc(F)c3)c(C(F)F)c2C(O)C1F (centres unmarked) [Compound 133, 4-(difluoromethyl)-5-(3,5-difluorophenoxy)-2-fluoro-3-hydroxy-2,3-dihydrobenzo[b]thiophene 1,1-dioxide]	–	EC50 (786-O-Hif-Luc cells; [2]): 0.124 µM
N#Cc1cc(F)cc(Oc2ccc(S(=O)(=O)C(F)(F)F)c3c2C[C@@H](F)[C@H]3O)c1 [Compound 15, 3-Fluoro-5-(((1S,2R)-2-fluoro-1-hydroxy-7-((trifluoromethyl)sulfonyl)-2,3-dihydro-1H-inden-4-yl)oxy)benzonitrile]	–	EC50 (786-O-Hif-Luc cells; [2]): 0.003 µM
CNS(=O)(=O)c1ccc(Oc2cc(F)cc(C#N)c2)c2c1[C@H](O)C(F)(F)C2 [Compound 26, (S)-7-(3-Cyano-5-fluorophenoxy)-2,2-difluoro-3-hydroxy-N-methyl-2,3-dihydro-1H-indene-4-sulfonamide]	–	EC50 (786-O-Hif-Luc cells; 24 h): 0.119 µM
N#Cc1cc(F)cc(Oc2ccc3c(c2C(F)F)[C@@H](O)C(F)(F)S3(=O)=O)c1 (single isomer, unassigned) [Compound 113]	–	EC50 (786-O-Hif-Luc cells; [3]): 0.007 µM
Cn1cc(Oc2ccc(S(=O)(=O)C(F)(F)F)c3c2CC(F)(F)[C@H]3O)cn1 [Compound 13, (S)-2,2-Difluoro-4-((1-methyl-1H-pyrazol-4-yl)oxy)-7-((trifluoromethyl)sulfonyl)-2,3-dihydro-1H-inden-1-ol]	–	EC50 (786-O-Hif-Luc cells; [2]): 0.177 µM
CS(=O)(=O)c1ccc(Oc2cc(F)cc(C#N)c2)c2c1[C@H](O)[C@H](F)[C@@H]2F [Compound 53, 3-[(1S,2S,3R)-2,3-difluoro-1-hydroxy-7-methylsulfonyl-indan-4-yl]oxy-5-fluoro-benzonitrile]	–	EC50 (786-O-Hif-Luc cells; [2]): 0.004 µM
[2H][C@@]1(O)c2c(ccc(Oc3cc(F)cc(C#N)c3)c2C(F)F)S(=O)(=O)C1(F)F [Compound 153, (R)-3-((4-(Difluoromethyl)-2,2-difluoro-3-hydroxy-1,1-dioxido-2,3-dihydrobenzo[b]thiophen-5-yl-3-d)oxy)-5-fluorobenzonitrile]	–	EC50 (786-O-Hif-Luc cells; [3]): 0.006 µM
CS(=O)(=O)c1ccc(Oc2cc(F)cc(C#N)c2)c2c1[C@H](O)[C@H](F)C2 [Compound 17, 3-Fluoro-5-(((1S,2R)-2-fluoro-1-hydroxy-7-(methylsulfonyl)-2,3-dihydro-1H-inden-4-yl)oxy)benzonitrile]	–	EC50 (786-O-Hif-Luc cells; 24 h): 0.036 µM
CS(=O)(=O)c1ccc(Oc2cc(F)cc(C#N)c2)c2c1[C@H](O)CC2 [Compound 51, 3-fluoro-5-[(1R)-1-hydroxy-7-methylsulfonyl-indan-4-yl]oxy-benzonitrile]	–	EC50 (786-O-Hif-Luc cells; [2]): 0.65 µM
N#Cc1cncc(Oc2ccc3c(c2Br)[C@@H](O)CS3(=O)=O)c1 [Compound 184, (R)-5-((4-bromo-3-hydroxy-1,1-dioxido-2,3-dihydrobenzo[b]thiophen-5-yl)oxy)nicotinonitrile]	10.2 µM	–
CCOc1ccc2c(c1C(F)F)[C@@H](O)C(F)(F)S2(=O)=O [Compound 202, (R)-4-(Difluoromethyl)-5-ethoxy-2,2-difluoro-3-hydroxy-2,3-dihydrobenzo[b]thiophene 1,1-dioxide]	15.5 µM	–
Cc1cc(C#N)cc(Oc2ccc3c(c2C(F)F)C(=O)C(F)(F)S3(=O)=O)c1 [Compound 155, 3-((4-(Difluoromethyl)-2,2-difluoro-1,1-dioxido-3-oxo-2,3-dihydrobenzo[b]thiophen-5-yl)oxy)-5-methylbenzonitrile]	18.7 µM	–
CS(=O)(=O)c1ccc(Oc2cncc(Cl)c2)c2c1[C@H](O)C(F)(F)[C@H]2F [Compound 96, (1S,3S)-4-((5-chloropyridin-3-yl)oxy)-2,2,3-trifluoro-7-(methylsulfonyl)-2,3-dihydro-1H-inden-1-ol]	2.3 µM	–
O=C1CS(=O)(=O)c2ccc(Oc3cc(F)cc(F)c3)cc21 [Compound 181, 5-(3,5-Difluorophenoxy)benzo[b]thiophen-3(2H)-one 1,1-dioxide]	17.6 µM	–
N#CN=S(=O)(CF)c1ccc(Oc2cc(F)cc(C#N)c2)c2c1[C@H](O)CC2 (single isomer, unassigned) [Compound 46]	7.2 µM	–
CC1(C)C(O)c2c(ccc(Oc3cc(F)cc(Cl)c3)c2Br)S1(=O)=O (centres unmarked) [Compound 170, 4-Bromo-5-(3-chloro-5-fluoro-phenoxy)-2,2-dimethyl-1,1-dioxo-3H-benzothiophen-3-ol]	–	IC50 [1, 5]: 21.9 µM
N#Cc1cc(F)cc(Oc2ccc3c(c2Br)C(=O)C(F)(F)S3(=O)=O)c1 [Compound 157, 3-((4-Bromo-2,2-difluoro-1,1-dioxido-3-oxo-2,3-dihydrobenzo[b]thiophen-5-yl)oxy)-5-fluorobenzonitrile]	9.7 µM	–
N#Cc1c(Oc2cc(F)cc(Cl)c2)ccc2c1CCS2(=O)=O [Compound 115, 5-(3-Chloro-5-fluorophenoxy)-2,3-dihydrobenzo[b]thiophene-4-carbonitrile 1,1-dioxide]	4.9 µM	–

Compound	IC50 [1, 4]	also measured
N#CN=S(=O)(c1ccc(Oc2cc(F)cc(C#N)c2)c2c1[C@H](O)[C@H](F)C2)C(F)F (single isomer, unassigned) [Compound 63]	16.1 µM	–
C=CCN=S(=O)(c1ccc(Oc2cc(F)cc(C#N)c2)c2c1[C@H](O)C(F)(F)C2)C(F)(F)F (single isomer, unassigned) [Compound 72]	0.068 µM	–
O=S(=O)(c1ccc(Oc2cc(F)cc(Cl)c2)c2c1[C@H](O)C[C@@H]2CO)C(F)(F)F [Compound 45, (1R,3S)-4-(3-chloro-5-fluorophenoxy)-3-(hydroxymethyl)-7-((trifluoromethyl)sulfonyl)-2,3-dihydro-1H-inden-1-ol]	0.73 µM	–
O=S1(=O)CCC(O)c2c1ccc(Oc1cc(F)cc(F)c1)c2C(F)F (centres unmarked) [Compound 166, 5-(Difluoromethyl)-6-(3,5-difluorophenoxy)-4-hydroxythiochromane 1,1-dioxide]	–	IC50 [1, 5]: 4.1 µM
CS(=O)(=NC#N)c1ccc(Oc2cc(F)cc(C#N)c2)c2c1[C@@H](O)C(F)(F)[C@@H]2F (single isomer, unassigned) [Compound 84]	1.57 µM	–
CS(=O)(=O)c1ccc(Oc2cc(F)cc(C#N)c2)c2c1[C@H](O)C(F)(F)[C@H]2O [Compound 75, 3-[(1S,3S)-2,2-difluoro-1,3-dihydroxy-7-methylsulfonyl-indan-4-yl]oxy-5-fluoro-benzonitrile]	8.7 µM	–
CS(=O)(=O)c1ccc(Oc2cncc(Br)c2)c2c1[C@H](O)[C@H](F)C2 [Compound 90, (1S,2R)-4-((5-Bromopyridin-3-yl)oxy)-2-fluoro-7-(methylsulfonyl)-2,3-dihydro-1H-inden-1-ol]	1.28 µM	–
N#Cc1cc(F)cc(Oc2ccc3c(c2C(F)F)C(O)(C(F)(F)F)C(F)(F)S3(=O)=O)c1 (centres unmarked) [Compound 209, 3-((4-(difluoromethyl)-2,2-difluoro-3-hydroxy-1,1-dioxido-3-(trifluoromethyl)-2,3-dihydrobenzo[b]thiophen-5-yl)oxy)-5-fluorobenzonitrile]	4.4 µM	–
CS(=O)(=O)c1ccc(Oc2cncc(C#N)c2)c2c1[C@H](O)C(F)(F)[C@H]2F [Compound 107, 5-(((1S,3S)-2,2,3-trifluoro-1-hydroxy-7-(methylsulfonyl)-2,3-dihydro-1H-inden-4-yl)oxy)nicotinonitrile]	23.9 µM	–
N#CN=S1(=O)CC(O)c2c1ccc(Oc1cc(F)cc(F)c1)c2C(F)F (centres unmarked) [Compound 159, N-(4-(difluoromethyl)-5-(3,5-difluorophenoxy)-3-hydroxy-1-oxido-2,3-dihydro-1λ^4-benzo[b]thiophen-1-ylidene)cyanamide]	17.4 µM	–
CC1(O)c2cc(Oc3cc(F)cc(F)c3)ccc2S(=O)(=O)C1(F)F (centres unmarked) [Compound 189, 5-(3,5-Difluorophenoxy)-2,2-difluoro-3-hydroxy-3-methyl-2,3-dihydrobenzo[b]thiophene 1,1-dioxide]	6.86 µM	–
N#Cc1c(Oc2cc(F)cc(Cl)c2)ccc2c1[C@H](O)CS2(=O)=O [Compound 171, (3S)-5-(3-Chloro-5-fluoro-phenoxy)-3-hydroxy-1,1-dioxo-2,3-dihydrobenzothiophene-4-carbonitrile]	12.9 µM	–
N=S1(=O)c2ccc(Oc3cc(F)cc(F)c3)c(C(F)F)c2C(O)C1(F)F (single isomer, unassigned) [Compound 163, 4-(difluoromethyl)-5-(3,5-difluorophenoxy)-2,2-difluoro-3-hydroxy-1-imino-2,3-dihydro-1H-1λ^4-benzo[b]thiophene 1-oxide]	0.059 µM	–
C=C1CC(O)c2c(S(C)(=O)=O)ccc(Oc3cc(F)cc(Cl)c3)c21 (centres unmarked) [Compound 44, 4-(3-chloro-5-fluorophenoxy)-3-methylene-7-(methylsulfonyl)-2,3-dihydro-1H-inden-1-ol]	3.39 µM	–
N#CN=S(=O)(CF)c1ccc(Oc2cc(F)cc(C#N)c2)c2c1[C@H](O)[C@H](F)C2 (single isomer, unassigned) [Compound 41]	0.13 µM	–
N=S1(=O)CC(O)c2c1ccc(Oc1cc(F)cc(F)c1)c2C(F)F (centres unmarked) [Compound 160, 4-(Difluoromethyl)-5-(3,5-difluorophenoxy)-3-hydroxy-1-imino-2,3-dihydro-1H-1λ^4-benzo[b]thiophene 1-oxide]	14.2 µM	–
N#Cc1cc(F)cc(Oc2ccc(S(N)(=O)=O)c3c2[C@@H](O)C(F)(F)[C@H]3O)c1 [Compound 101, (1R,3S)-7-(3-cyano-5-fluoro-phenoxy)-2,2-difluoro-1,3-dihydroxy-indane-4-sulfonamide]	3.7 µM	–
